According to PMC11079024, “Identification of a family of species-selective complex I inhibitors as potential anthelmintics” (Nature Communications, 2024):
pIC50: −log10 of the molar value. Where two headings read alike, the source gives them in different places.

Key:
[1] = molecular target: C. elegans (N2) complex I (NADH:ubiquinone oxidoreductase) (Caenorhabditis elegans, UniProt P24887+Q93873+Q94360); test: biochemical; format: biochemical; conditions: for Log IC50 C. elegans complex I: log10 of IC50 in µM, C. elegans mitochondria
Summary of the method: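 Mitochondria from liquid-cultured adults were freeze-thawed thrice before the 15-min DCIP-coupled NADH oxidation read.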

in vitro = conditions: human, HEK293 Cell Viability Assay LC50, HEK293 cells, estimated from fitted dose-response curves
L1 wild-type C. elegans = conditions: 50 μM compound; […]; hit = relative motility below 0.25 3 hours after removal of KCN
[2] = in vitro complex I dose response on C. elegans mitochondria, average of at least two biological replicates, fit in R (DRC), read-out: IC50 C. elegans complex I
[3] = wild-type (N2) mitochondria, read-out: C. elegans Complex I IC50
[4] = wild-type C. elegans mitochondria, estimated from fitted dose-response curves, read-out: C. elegans Complex I IC50
[5] = mean of at least two biological replicates

Sequence of C. elegans (N2) complex I (NADH:ubiquinone oxidoreductase) (Q94360 17-199): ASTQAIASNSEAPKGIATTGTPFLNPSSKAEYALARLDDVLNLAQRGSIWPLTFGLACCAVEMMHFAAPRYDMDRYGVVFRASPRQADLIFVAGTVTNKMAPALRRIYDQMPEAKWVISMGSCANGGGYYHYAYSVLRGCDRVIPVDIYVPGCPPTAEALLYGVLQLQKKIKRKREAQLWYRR
Sequence of C. elegans (N2) complex I (NADH:ubiquinone oxidoreductase) (P24887 whole entry): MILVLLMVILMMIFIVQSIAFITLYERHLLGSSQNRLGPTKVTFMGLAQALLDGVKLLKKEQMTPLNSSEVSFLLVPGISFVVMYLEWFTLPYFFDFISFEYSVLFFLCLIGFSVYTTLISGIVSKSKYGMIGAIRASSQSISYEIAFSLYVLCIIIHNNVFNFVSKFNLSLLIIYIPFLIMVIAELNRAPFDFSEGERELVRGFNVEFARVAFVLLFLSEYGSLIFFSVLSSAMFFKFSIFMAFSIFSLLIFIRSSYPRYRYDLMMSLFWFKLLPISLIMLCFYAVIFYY
Sequence of C. elegans (N2) complex I (NADH:ubiquinone oxidoreductase) (Q93873 31-482): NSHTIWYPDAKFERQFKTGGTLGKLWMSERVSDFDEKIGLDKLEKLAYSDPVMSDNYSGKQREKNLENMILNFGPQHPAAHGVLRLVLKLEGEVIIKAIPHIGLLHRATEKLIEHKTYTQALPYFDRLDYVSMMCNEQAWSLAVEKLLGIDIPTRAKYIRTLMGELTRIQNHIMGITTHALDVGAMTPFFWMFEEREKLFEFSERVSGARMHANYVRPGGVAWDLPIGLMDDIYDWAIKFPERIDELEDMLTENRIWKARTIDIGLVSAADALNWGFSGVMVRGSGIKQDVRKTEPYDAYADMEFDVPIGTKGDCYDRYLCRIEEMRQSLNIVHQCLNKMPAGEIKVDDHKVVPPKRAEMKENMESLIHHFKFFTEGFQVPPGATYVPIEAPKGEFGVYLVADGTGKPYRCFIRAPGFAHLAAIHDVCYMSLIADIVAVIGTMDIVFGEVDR

Compound | pIC50 [1, 2] | Log IC50 C. elegans complex I [1] [µM] | pIC50 [1, 3] | pIC50 ([1]; wild-type C. elegans mitochondria, read-out: C. elegans Complex I IC50) | CC50 at 2 days (in vitro) [µM] | Screen "Hit" (L1 wild-type C. elegans) | pIC50 [1, 4] | CC50 at 2 days (in vitro; [5]) [µM]
CC(C)Cc1ccc(C(C)c2nc3ccccc3n2C(C)C)cc1 (centres unmarked) [STK951903] | 5.38 | 0.62 | 5.38 | 5.38 | 29.2 | Y (hits were identified as compounds that reduced relative motility below 0.25 (75% reduction)) |  | 
C=CCn1c(C(C)c2ccc(CC(C)C)cc2)nc2ccccc21 (centres unmarked) [STL020755] | 5.64 | 0.36 | 5.64 |  |  | Y (hits were identified as compounds that reduced relative motility below 0.25 (75% reduction)) | 5.64 | 49.5
c1ccc(CCCCCCCCCCc2nc3ccccc3[nH]2)cc1 [STL442376] | 5.63 | 0.37 |  |  |  | Y (hits were identified as compounds that reduced relative motility below 0.25 (75% reduction)) | 5.63 | < 6.25
